The values below come from patent US12234233B2, “Crystal form of phosphodiesterase inhibitor, preparation method therefor and use thereof” (TRANSTHERA SCIENCES (NANJING), INC., priority 2019, dated 2025).

The nature of this data set: Pharmacokinetic evaluation in rats. Type of data set: in vivo, male SD rats. The procedure: Test substances: the compound of formula (I) was prepared by example 1 of the present invention, and the crystal form I was prepared by example 2 of the present invention.
Administration to Animals and Sample Collection:
the compound of formula (I) for the experiment was dissolved with 2% DMSO+10% PEG400+88% (28% HP-3-CD) physiological saline to prepare a solution; the solution of the test substance was administered to SD rats by gavage at a dose of 5.0 mg/kg; and the blood sampling time points were 15 min, 30 min, 1 h, 2 h, 4 h, 6 h, 8 h and 24 h after administration.
The compound of formula (I) for the experiment was dissolved with 2% DMSO+10% PEG400+88% (28% HP-3-CD) physiological saline to prepare a solution; the solution of the test substance was administered to SD rats by intravenous bolus at a dose of 1 mg/kg; and the blood sampling time points were 5 min, 15 min, 30 min, 1 h, 2 h, 4 h, 6 h, 8 h and 24 h after administration.
The crystal form I for the experiment was dissolved with 5% DMSO+10% PEG400+85% (20% captisol) physiological saline solution to prepare a solution; the solution of the test substance was administered to SD rats by gavage at a dose of 60.0 mg/kg; and the blood sampling time points were 15 min, 30 min, 1 h, 2 h, 4 h, 8 h, 24 h, 30 h and 48 h after administration.
The crystal form I for the experiment was dissolved with 2% DMSO+10% PEG400+88% (28% HP-β-CD) physiological saline to prepare a solution; the solution of the test substance was administered to SD rats by intravenous bolus at a dose of 5 mg/kg; and the blood sampling time points were 5 min, 15 min, 30 min, 1 h, 4 h, 8 h, 12 h and 24 h after administration.
Compound of formula (I): the ordinary SD rats were used and fixed; the tails of the rats were heated in a water bath 10 minutes before each time point; and about 100 μL of blood was collected via a tail vein, and then placed in an anticoagulation tube containing EDTA-K2. The blood sample was centrifuged at 8000 rpm at 4° C. for 6 min to obtain a plasma sample, which was prepared within 30 minutes after blood collection. The plasma was stored in a refrigerator at −80° C. before the test.
Crystal form I: the rats were subjected to jugular vein cannulation (JVC); each time, about 0.35 ml of blood was collected from the rats via a jugular vein cannula into a centrifuge tube containing 5 μl of 15% EDTA-K2; the mixture was gently mixed to obtain a homogeneous mixture, and then the centrifuge tube was placed in an ice bath immediately. Within 1 hour after collecting whole blood, the mixture was centrifuged at 4° C. and 2400×g for 5 minutes, and the supernatant was immediately collected to obtain a plasma sample. The plasma was stored in a refrigerator at −80° C. before the test.
the plasma sample to be tested was taken out from the −80° C. refrigerator, subjected to natural melting at room temperature, and then vortexed for 5 min; […] of the plasma sample was precisely pipetted into a 1.5 mL centrifuge tube; […] of the internal standard working solution (tolbutamide in methanol) at a concentration of 100 ng/mL was added, and the mixture was mixed homogeneously; the homogeneous mixture was vortexed for 5 min, and then centrifuged at 12000 rpm for 5 min; 50 μL of the supernatant was precisely pipetted into a 96-well plate pre-filled with 150 μL of water/well; and the plate was vortexed for 5 min for homogenization, and subjected to LC-MS/MS assay, with a sample loading volume of 5 μL. […]

Setting [1] is: male SD rats, gavage 60.0 mg/kg.
[2] abbreviates: male SD rats, intravenous bolus 5 mg/kg.

Structures are written as SMILES. Like-named read-outs stand apart in the source and are kept apart here.

For the compound `CCc1cc2c(N3CCC(C)(OC)CC3)c(C#N)c(=O)[nH]c2cn1` [Crystal form I, 6-ethyl-4-(4-methoxy-4-methylpiperidin-1-yl)-2-oxo-1,2-dihydro-1,7-diazanaphthal ene-3-carbonitrile], the Tmax – broadly, the time at which the peak concentration occurs – (Sprague-Dawley, rat, plasma, po, male SD rats, gavage 60.0 mg/kg) amounted to 1.67 h. For the same compound, the AUC(0-t) (Sprague-Dawley, rat, plasma, po, male SD rats, gavage 60.0 mg/kg, read-out: AUClast PO) is 40100 ng·h/mL. Also, the AUC(0-t) (Sprague-Dawley, rat, plasma, male SD rats, intravenous bolus 5 mg/kg, read-out: AUClast iv) turned out to be 2450 ng·h/mL. Further, the pharmacokinetic characteristics result (conclusion from Table 2, rats) is “excellent pharmacokinetic characteristics”. For the same compound, under setting [1], the “AUClast PO/Dose” value is 667.8 h*ng/mL per mg/kg and the “tz1/2 PO” value is on record as 3.91 h. Moreover, under setting [2], the “AUClast iv/Dose” value came out at 489.4 h*ng/mL per mg/kg, the Cl_obs iv amounted to 35.5 mL/min/kg, the Vz_obs iv was found to be 0.898 L/kg and the tz1/2 iv worked out at 0.453 h.
